The numbers were not newly measured in patent US9795686B2, “Biomaterials comprising hyaluronic acid binding peptides and bifunctional biopolymer molecules for hyaluronic acid retention and tissue engineering applications” (THE JOHNS HOPKINS UNIVERSITY, priority 2012, dated 2017), which cites them from elsewhere.

The Kd is the free concentration of one partner at which half of the binding sites on the other are occupied at equilibrium, for simple one-to-one binding.

The conditions of the data set: previously observed; read-out: Kd, affinity of HABPep for HA.

For the sequence GAHWQFNALTVR [HABPep], the Kd was 1.65 µM.
